Key:
[1] = target: T1, Adrenergic α2A (Homo sapiens, UniProt P08913); test: Radioligand binding assay, Adrenergic α2A
T1 construct: 203620
T1 sequence (P08913 1-465): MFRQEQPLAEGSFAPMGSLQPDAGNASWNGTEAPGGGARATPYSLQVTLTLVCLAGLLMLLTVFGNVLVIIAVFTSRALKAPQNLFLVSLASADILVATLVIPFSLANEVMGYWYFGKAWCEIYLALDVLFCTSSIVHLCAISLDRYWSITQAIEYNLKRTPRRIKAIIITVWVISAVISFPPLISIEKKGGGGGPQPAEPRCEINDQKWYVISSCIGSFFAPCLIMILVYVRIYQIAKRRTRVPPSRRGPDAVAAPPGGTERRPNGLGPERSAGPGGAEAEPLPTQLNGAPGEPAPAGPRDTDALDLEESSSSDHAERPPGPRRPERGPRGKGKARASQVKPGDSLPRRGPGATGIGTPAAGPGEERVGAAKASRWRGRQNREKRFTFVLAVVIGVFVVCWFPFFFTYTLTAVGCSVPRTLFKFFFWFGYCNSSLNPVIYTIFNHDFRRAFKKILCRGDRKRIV
From the text: . Table 1 provides data produced via a receptor binding assay and IC50 and Ki determination. […] In addition, the compound of formula (Ia) has a potent DAT inhibition, which is indicative of dopaminergic uptake inhibition and increased DA activity. In addition to the effect on SERT and DAT, the compound of formula (Ia) inhibited the transporter of Norepinephrine (NET), and several neurotransmitter's receptors like alpha2A and alpha2C receptors, alpha 1A and alphal C, 5HT2A and 5HT2C, signal histamine2 and dopamine D1. This specific profile is in line with the data on antidepressant, anxiolytic and moderate neuro-stimulation activity observed in the animal model studies.
With regard to the data provided in Table 1, the biochemical assay results are presented as the percent inhibition of specific binding or activity throughout the report. For primary assays, only the lowest concentration with a significant response judged by the assays’ criteria, is shown in this summary. […] Unless otherwise requested, primary screening in duplicate with quantitative data (e.g., IC50±SEM, Ki±SEM and nH) are shown.

[2] = test system: BALB/c mice; test: Rotor rod test (motor activity); type: in vivo; details: 10 mg/kg p.o., 90 min after administration; vs controls
Procedure: The test was performed 90 min after oral administration of the compounds. […] The rotor rod test involves placing the mouse on an elevated rotating bar. In this test, the mouse is placed on the bar such that it is facing the direction opposite to the rotation of the rod. The time lag to fall is determined.

[3] = test system: ICR mice; test: Acute toxicity, oral administration; type: in vivo; details: for stimulation behavior (number of rearings): acute oral
Procedure: FIG. 11B illustrates the effect of administering the compound of formula (Ia) on stimulation in ICR mice.
Acute toxicity was assessed in male BALB/c mice that had been orally administered the compound of formula (Ta). The compound of formula (Ia) was administered orally to mice at doses of 20, 25, 75, and 100 mg/kg (4 animals/group). Animals were followed for behavioral changes such as stimulation (number of rearings), and sedation, after 24, 48 and 72 hr. Body weight was determined up to 7 days after drug administration.

[4] = test system: ICR male mice; test: Subchronic ip administration (toxicity); type: in vivo; details: mouse, in vivo, ip, 30 mg/kg
From the text: […]. Except for this local irritation no other toxicity was noted.
[…]. […] Except of these local irritations no other toxicity was noted.

`CN[C@H]1CC[C@@H](c2ccc(Cl)c(Cl)c2)c2ccc(C#CCCCO)cc21` [compound Ia, (1S-cis)-4-(3,4-dichlorophenyl)-7-(5-hydroxy-1-pentyn-1-yl)-1,2,3,4-tetrahydro-N-methyl-1-naphthalenamine hydroiodide] was tested, and the IC50 [1] was 273 nM, the nH [1] was 0.930 and the inhibition at 1 µM ([1]; 1 μM) was 82%. For the same compound, the Ki ([1]; read-out: K1) was 102 nM, the “muscle strength and basic motor activity” value [2] was “did not modify” and the survival ([3]; acute oral up to 100 mg/kg) was “all animals survived”. The tolerability ([3]; acute oral up to 100 mg/kg) was “well tolerated”, the “stimulation behavior (number of rearings)” value ([3]; 24 and 48hr after administration) was “significant increase” and the “stimulation behavior (number of rearings)” value ([3]; after 72 hr) was “normalization”. For the same compound, the “histopathology of heart, spleen, liver and kidney” value [4] was “minimal to mild irritation”.

From patent US20100130549A1, “PSYCHOTROPIC COMPOUNDS, COMPOSITIONS AND METHODS OF USE” (priority 2007, published 2010)
